Measured values: US20050119288A1, “Dosing schedule for a novel anticancer agent” (Pfizer Inc, priority 2003, published 2005)

Legend:
[1] = system: BT-474 tumors; assay: BT-474 xenograft tumor growth in athymic mice; assay type: in vivo, human; conditions: PO; for % Growth inhibition: 22 days
From the text: The in vivo anti-tumor activity of the compounds for use in the methods of the present invention can be determined by the amount of inhibition of tumor growth by a test compound relative to a control. The tumor growth inhibitory effects of various compounds can be measured according to the method of Corbett T. H., et al., “Tumor Induction Relationships in Development of Transplantable Cancers of the Colon in Mice for Chemotherapy Assays, with a Note on Carcinogen Structure”, Cancer Res., 35, 2434-2439 (1975) and Corbett T. H., et al., “A Mouse Colon-tumor Model for Experimental Therapy”, Cancer Chemother. Rep. (Part 2)”, 5, 169-186 (1975), with slight modifications. Tumors can be induced in the left flank of mice by subcutaneous (sc) injection of 1-5 million log phase cultured tumor cells suspended in 0.1 ml RPMI 1640 medium. After sufficient time has elapsed for the tumors to become palpable (˜100-150 mm^3 in size/5-6 mm in diameter) the test animals (athymic female mice) are treated with test compound (formulated at a concentration of 10 to 15 mg/ml in 5 Gelucire or 0.5% methyl cellulose) by the intravenous (iv) or oral (po) route of administration once or twice daily for 7 to 29 consecutive days. In order to determine an anti-tumor effect, the tumor is measured in millimeters with a Vernier caliper across two diameters and the tumor size (mm^3) is calculated using the formula: Tumor size (mm^3)=(W×W)/2×L (L=length and W=width), according to the methods of Geran, R. I., et al. “Protocols for Screening Chemical Agents and Natural Products Against Animal Tumors and Other Biological Systems”, Third Edition, Cancer Chemother. Rep., 3, 1-104 (1972). Results are expressed as percent inhibition, according to the formula: Inhibition Growth (%)=[100-{(% Growth of Treated/% Growth of Control)×100}]. The flank site of tumor implantation provides reproducible dose/response effects for a variety of chemotherapeutic agents, and the method of measurement (tumor diameter) is a reliable method for assessing tumor growth rates.
(§1) Exponentially growing BT-474 cells (RPMI 1640 with 10 mM HEPES, 10% FBS, and pen/strep [Gibco]) were harvested and inoculated SC (5 million cells/animal) into female athymic mice. Trochar pieces of BT-474 tumors were then implanted into the right flank of animals. BT-474 tumor bearing mice (50-320 mm^3 in size, N=40) were randomized in 7 groups consisting 5-6 animals each. Animals were treated with vehicle (PO, BID) or the test compound (PO, QD or BID) as described in Table 4. The tumor measurements and body weight changes were obtained on days 1, 6, 11, 15 and 22. Tumor volume was calculated by the following formula: Tumor volume (mm^3)═(W×W)/2×L (L=length & W=width). Blood samples (˜50 μl) were isolated at 0.5, 1, 2, 4 and 8 hrs after dosing on day 22 for PK-analysis. Tumors were isolated at 0.5 hr post-dosing on day 22 for PD-analysis by ELISA.
Statistical Analysis: ANOVA was conducted on the percentage growth data and planned comparisons were conducted between like-doses. The data were log transformed for the analysis due to the distribution of the values. The Dunnett-Tamahane procedure was used for the multiple comparison analysis.
Thus, oral anti-tumor efficacy of the test compound (QD and BID) was determined against human breast adenocarcinoma model BT-474 which overexpresses erbB2. The test compound administration (QD or BID) was efficacious and caused growth inhibition of BT-474 xenografts (FIGS. 5a and 5b). […] Due to a wide variation in the initial tumor volume, % growth of individual tumor was calculated and an average of each group was used to determine relative anti-tumor efficacy.

[2] = Body weight and tolerability, BT-474 study; assay type: in vivo, mice; conditions: PO
Protocol: as §1

[3] = target: erbB2 receptor autophosphorylation (Homo sapiens, UniProt P04626); assay: p-erbB2 reduction in SK-OV-3 tumors by ELISA; assay type: in vivo; conditions: 0.5 hr post-dosing on day 18
Protocol: SK-OV-3 cells obtained from ATCC (Rockville, Md.) were grown in McCoy's medium containing 10% fetal bovine serum and pen/strep. Exponentially growing cells were harvested and inoculated SC (5 million cells/animal) into female athymic mice. The tumor measurements and body weight changes were obtained on days 1, 3, 6, 10, 13 and 18. Tumor volume was calculated by the following formula: Tumor volume (mm^3)═(W×W)/2×L (L=length & W=width). Blood samples (˜50 μl) were isolated at 0.5, 1, 2, 4 and 8 hrs after dosing on day 18 for PK-analysis. Tumors were isolated at 0.5 hr post-dosing on day 18 for PD-analysis by ELISA.

[4] = system: p-erbB2 (the phosphorylated form of erbB2 receptor); assay: p-erbB2 reduction in FRE/erbB2 tumors; assay type: in vivo, human
From the text: An objective of the pre-clinical investigations was to determine whether the Cmax or area under the curve (AUC) of the test compound is critical for the anti-tumor efficacy. An additional goal was to establish a pharmacokinetics/pharmacodynamics (PK/PD) relationship in the FRE/erbB2 tumor model. The FRE/erbB2 is an engineered murine tumor model, which over-expresses human erbB2 with a trans-membrane mutation.

[5] = Plasma concentration in FRE/erbB2 tumor-bearing mice
Protocol: The test compound was either administered using tail vein infusion or orally.
A 1.15 mg/ml solution of the test compound was infused IV at 550 μl/hr for 2 minute ramped infusions followed by 50 μl/hr for 15 min or 4 hour daily infusions. (Projection was based on Cl of the test compound). Athymic female mice bearing FRE/erbB2 tumors (˜100 mm^3 in size) were treated with vehicle, the test compound orally or the test compound intravenously. […] The study was carried out for 7 days. Plasma and tumor samples were isolated for PK and PD analysis at the termination of study.

erbB2 receptor autophosphorylation, sequence (P04626 23-1255): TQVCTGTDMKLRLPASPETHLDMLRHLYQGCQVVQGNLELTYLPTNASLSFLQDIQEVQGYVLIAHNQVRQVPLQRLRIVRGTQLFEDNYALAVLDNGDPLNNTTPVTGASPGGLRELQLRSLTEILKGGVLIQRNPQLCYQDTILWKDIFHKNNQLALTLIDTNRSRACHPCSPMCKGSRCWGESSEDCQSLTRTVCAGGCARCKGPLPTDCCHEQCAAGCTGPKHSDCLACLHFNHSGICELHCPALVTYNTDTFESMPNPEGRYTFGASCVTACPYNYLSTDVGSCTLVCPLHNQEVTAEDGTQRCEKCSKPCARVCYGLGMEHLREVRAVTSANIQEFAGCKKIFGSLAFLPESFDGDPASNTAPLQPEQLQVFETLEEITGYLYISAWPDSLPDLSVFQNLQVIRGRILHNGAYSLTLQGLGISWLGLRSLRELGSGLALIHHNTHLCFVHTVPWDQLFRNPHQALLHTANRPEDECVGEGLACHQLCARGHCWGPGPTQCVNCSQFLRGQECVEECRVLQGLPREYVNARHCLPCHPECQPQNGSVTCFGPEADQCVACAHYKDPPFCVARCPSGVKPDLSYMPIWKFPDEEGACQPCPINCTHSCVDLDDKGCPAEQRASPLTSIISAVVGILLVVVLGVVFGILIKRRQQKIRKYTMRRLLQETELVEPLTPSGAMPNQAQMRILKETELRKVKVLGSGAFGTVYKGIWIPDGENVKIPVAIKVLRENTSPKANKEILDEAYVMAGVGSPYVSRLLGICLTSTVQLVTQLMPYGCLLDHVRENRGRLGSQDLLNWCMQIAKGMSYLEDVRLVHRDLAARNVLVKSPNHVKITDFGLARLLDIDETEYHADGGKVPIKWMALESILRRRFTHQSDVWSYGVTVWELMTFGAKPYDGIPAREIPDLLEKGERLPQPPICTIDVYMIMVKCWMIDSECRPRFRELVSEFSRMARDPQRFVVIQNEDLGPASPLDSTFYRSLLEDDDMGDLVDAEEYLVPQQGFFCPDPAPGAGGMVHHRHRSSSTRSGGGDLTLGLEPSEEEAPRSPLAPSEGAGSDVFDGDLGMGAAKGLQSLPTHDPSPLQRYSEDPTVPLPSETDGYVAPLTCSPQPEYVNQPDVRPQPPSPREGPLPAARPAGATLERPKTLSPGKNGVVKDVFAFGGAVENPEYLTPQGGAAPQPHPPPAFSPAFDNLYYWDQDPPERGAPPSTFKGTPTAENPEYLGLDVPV

## COCC(=O)NC/C=C/c1ccc2ncnc(Nc3ccc(Oc4ccc(C)nc4)c(C)c3)c2c1 [Test Compound, E-2-Methoxy-N-(3-{4-(3-methyl-4-(6-methyl-pyridin-3-yloxy)-phenylamino)-quinazolin-6-yl}-allyl)-acetamide]
[1]; BID 50 mg/kg
  Tumor volume Day 1 (Mean ± SE): 155 ± 42 mm^3
[1]; BID, 15 mg/kg (Total Daily Dose = 30 mg/kg)
  % Growth inhibition: 54%
[1]; BID, 15 mg/kg
  Tumor volume Day 1 (Mean ± SE): 114 ± 47 mm^3
  Tumor volume Day 22 (Mean ± SE): 520 ± 254 mm^3
[1]; BID, 30 mg/kg (Total Daily Dose = 60 mg/kg)
  % Growth inhibition: 68%
[1]; BID, 30 mg/kg
  Tumor volume Day 1 (Mean ± SE): 161 ± 44 mm^3
  Tumor volume Day 22 (Mean ± SE): 530 ± 240 mm^3
[1]; BID, 50 mg/kg (Total Daily Dose = 100 mg/kg)
  % Growth inhibition: 68%
[1]; BID, 50 mg/kg
  Tumor volume Day 22 (Mean ± SE): 413 ± 98 mm^3
[1]; QD 50 mg/kg
  Tumor volume Day 1 (Mean ± SE): 153 ± 40 mm^3
[1]; QD, 15 mg/kg
  % Growth inhibition: 22%
  Tumor volume Day 1 (Mean ± SE): 78 ± 18 mm^3
  Tumor volume Day 22 (Mean ± SE): 376 ± 79 mm^3
[1]; QD, 30 mg/kg
  % Growth inhibition: 33%
  Tumor volume Day 1 (Mean ± SE): 139 ± 31 mm^3
  Tumor volume Day 22 (Mean ± SE): 635 ± 189 mm^3
[1]; QD, 50 mg/kg
  % Growth inhibition: 35%
  Tumor volume Day 22 (Mean ± SE): 608 ± 136 mm^3
[2]; BID 50 mg/kg
  average body weight Day 1: 24 g
[2]; BID, 15 mg/kg
  average body weight Day 1: 24 g
  average body weight Day 22: 29 g
[2]; BID, 30 mg/kg
  average body weight Day 1: 26 g
  average body weight Day 22: 30 g
[2]; BID, 50 mg/kg
  average body weight Day 22: 28 g
[2]; QD 50 mg/kg
  average body weight Day 1: 25 g
[2]; QD, 15 mg/kg
  average body weight Day 1: 25 g
  average body weight Day 22: 29 g
[2]; QD, 30 mg/kg
  average body weight Day 1: 23 g
  average body weight Day 22: 27 g
[2]; QD, 50 mg/kg
  average body weight Day 22: 29 g
[2]; QD or BID, 22 days
  tolerability, body weight loss or animal mortality: well tolerated and there was no body weight loss or animal mortality
[3]; SK-OV-3, po, 0.5 h, PO, BID 25 mg/kg (Total Daily Dose = 50 mg/kg)
  inhibition in vivo at 25 mg/kg: 20%
[3]; SK-OV-3, po, 0.5 h, PO, BID 50 mg/kg (Total Daily Dose = 100 mg/kg)
  inhibition in vivo at 50 mg/kg: 24%
[3]; SK-OV-3, po, 0.5 h, PO, BID 100 mg/kg (Total Daily Dose = 200 mg/kg)
  inhibition in vivo at 100 mg/kg: 62%
[3]; SK-OV-3, po, 0.5 h, PO, QD 50 mg/kg
  inhibition in vivo at 50 mg/kg: 14%
[3]; SK-OV-3, po, 0.5 h, PO, QD 100 mg/kg
  inhibition in vivo at 100 mg/kg: 75%
[3]; SK-OV-3, po, 0.5 h, PO, QD 200 mg/kg
  inhibition in vivo at 200 mg/kg: 90%
[3]; span over 50 mg/kg QD and 25 mg/kg BID
  reduction of erbB2 receptor autophosphorylation: 14-20%
[4]; 1.4 mg/kg IV, QD, 15 min/day
  % p-erbB2 reduction: 48%
[4]; 10.7 mg/kg IV, 4 hr/day
  % p-erbB2 reduction: 53%
[4]; 25 mg/kg PO, QD, termination of 7 day study
  % p-erbB2 reduction: 34%
[4]; span over the IV groups 15 min/day and 4 hr/day
  p-erbB2 reduction: 48-53%
[5]; 10.7 mg/kg IV, 4 hr/day
  Plasma Concentration (Mean ± SE): 473 ± 141 ng/mL
[5]; 10.7 mg/kg IV, 4 hr/day, listed as test compound
  Plasma Concentration (Mean ± SE): ~500 ng/mL
[5]; 25 mg/kg PO, QD, 0.5 h post-dosing on day 7
  Plasma Concentration (Mean ± SE): 1460 ± 170 ng/mL
